Measurements published in US20240228458A1, “PYRIMIDINE DERIVATIVE HAVING PROTEIN KINASE INHIBITORY ACTIVITY, AND THERAPEUTIC PHARMACEUTICAL COMPOSITION COMPRISING SAME” (THERAPEX CO., LTD., priority 2021, published 2024).

Experiments:
Type in all cases: cell-based
[1] = test system: Ba/F3 cells expressing L858R/T790M/C797S (EGFR-LTC); assay: Growth inhibition (GI50) of Ba/F3 cells expressing L858R/T790M/C797S (EGFR-LTC), Celltiter glo; details: Mus musculus, BaF3, 72 h
How it was run: (§1)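 Viability read by CellTiter-Glo after 72 h compound exposure (37 °C, 5% CO2) of variant-expressing Ba/F3 cells plated at 100,000 cells/ml. Dosing 4 h post-seeding; 10-pt 4-fold series from 2 mM stock; 0.5% DMSO. GI50 = molar concentration (μM) giving half-maximal growth inhibition.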

[2] = test system: Ba/F3 cells expressing L858R/T790M (EGFR-LT); assay: Growth inhibition (GI50) of Ba/F3 cells expressing L858R/T790M (EGFR-LT), Celltiter glo; details: Mus musculus, BaF3, 72 h
Method: (§2) In this experimental example, a determination was made as to whether the compounds prepared in Examples 1-283 have the ability to inhibit the growth of Ba/F3 cells expressing EGFR-wt, del19/T790M/C797S (EGFR-DTC), L858R/T790M/C797S (EGFR-LTC), del19/T790M (EGFR-DT), and L858R/T790M (EGFR-LT) variants.
(§3) The parental Ba/F3 cell line is a population of cells that are not introduced with EGFR variants. Specifically, 100 μl of a cell line expressing each variant was plated in a 96-well plate at a density of 100,000 cells/ml. 10-point, 4-fold serial dilutions of each compound were prepared, starting at 2 mM. After 4 h, 0.5 μl of the compound (0.5% DMSO) was added, followed by incubation at 37° C. and 5% CO2 for 72 h. After incubation, the number of viable cells was measured using a Celltiter glo assay kit (Promega) and the GI50 of the compound was determined. The term “GI50” refers to the molar concentration (μM) of the compound required for 50% growth inhibition of cells.

[3] = test system: Ba/F3 cells expressing del19/T790M (EGFR-DT); assay: Growth inhibition (GI50) of Ba/F3 cells expressing del19/T790M (EGFR-DT), Celltiter glo; details: Mus musculus, BaF3, 72 h
Method: as §2, §3

[4] = test system: Ba/F3 cells expressing del19/T790M/C797S (EGFR-DTC); assay: Growth inhibition (GI50) of Ba/F3 cells expressing del19/T790M/C797S (EGFR-DTC), Celltiter glo; details: Mus musculus, BaF3, 72 h
How it was run: as §1

[5] = test system: Ba/F3 cells expressing EGFR-wt; assay: Growth inhibition (GI50) of Ba/F3 cells expressing EGFR-wt, Celltiter glo; details: Mus musculus, BaF3, 72 h
How it was run: as §1

parental Ba/F3 cell line = assay: Growth inhibition (GI50) of the parental Ba/F3 cell line (not introduced with EGFR variants), Celltiter glo; details: Mus musculus, BaF3, 72 h, parental Ba/F3 cells
How it was run: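 Viable cell count by CellTiter-Glo after 72 h at 37 °C gave GI50 values (μM, 50% growth inhibition). Cells lacking EGFR variants were seeded at 100,000 cells/ml and dosed 4 h later with 4-fold serial dilutions from a 2 mM stock, 0.5% DMSO.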

Row | GI50 [1] | GI50 [2] | GI50 [3] | GI50 [4] | GI50 [5] | SMILES | GI50 (parental Ba/F3 cell line)
1 | 1 to 25 nM | 1 to 25 nM | 1 to 25 nM | 1 to 25 nM | 25 to 100 nM | COc1cc(N2CCC(N3CCNCC3)CC2)c(C)cc1Nc1ncc(Br)c(Nc2cc(Cl)ccc2NS(C)(=O)=O)n1 [Example 94, N-(2-((5-bromo-2-((2-methoxy-5-methyl-4-(4-(piperazin-1-yl)piperidin-1-yl)phenyl)amino)pyrimidin-4-yl)amino)-4-chlorophenyl)methanesulfonamide] | 500 to 2000 nM
2 | 1 to 25 nM | 25 to 100 nM | 25 to 100 nM | 25 to 100 nM | 500 to 2000 nM | Cc1cc(Nc2ncc(Br)c(Nc3cc(Cl)ccc3NS(C)(=O)=O)n2)c(Cl)cc1N1CCC(N2CCCN(C)CC2)CC1 [Example 97, N-(2-((5-bromo-2-((2-chloro-5-methyl-4-(4-(4-methyl-1,4-diazepan-1-yl)piperidin-1-yl)phenyl)amino)pyrimidin-4-yl)amino)-4-chlorophenyl)methanesulfonamide] | 500 to 2000 nM
3 | 1 to 25 nM | 25 to 100 nM | 1 to 25 nM | 25 to 100 nM | 100 to 500 nM | COc1cc(N2CCC(N3CCN(C)CC3)CC2)c(C)cc1Nc1ncc(Cl)c(Nc2ccc3nccnc3c2NS(C)(=O)=O)n1 [Example 131, N-(6-((5-chloro-2-((2-methoxy-5-methyl-4-(4-(4-methylpiperazin-1-yl)piperidin-1-yl)phenyl)amino)pyrimidin-4-yl)amino)quinoxalin-5-yl)methanesulfonamide] | 500 to 2000 nM
4 | 25 to 100 nM | 100 to 500 nM | 100 to 500 nM | 25 to 100 nM | 100 to 500 nM | COc1nc(N2CCC(N3CCN(C)CC3)CC2)c(C)cc1Nc1ncc(Cl)c(Nc2ccc3nccnc3c2NS(C)(=O)=O)n1 [Example 134, N-(6-((5-chloro-2-((2-methoxy-5-methyl-6-(4-(4-methylpiperazin-1-yl)piperidin-1-yl)pyridin-3-yl)amino)pyrimidin-4-yl)amino)quinoxalin-5-yl)methanesulfonamide] | 100 to 500 nM
5 | 25 to 100 nM | 500 to 2000 nM | 500 to 2000 nM | 100 to 500 nM | 500 to 2000 nM | COc1cc(N2CCC(N3CCN(C)CC3)CC2)c(C)cc1Nc1ncc(Br)c(Nc2ccccc2N=S(C)(C)=O)n1 [Example 142] | 500 to 2000 nM
6 | 100 to 500 nM | 100 to 500 nM | 500 to 2000 nM | 500 to 2000 nM | 500 to 2000 nM | Cc1cc(Nc2ncc(Br)c(Nc3ccccc3N=S(C)(C)=O)n2)c(Cl)cc1N1CCC(N2CCN(C)CC2)CC1 [Example 144] | 500 to 2000 nM
7 | 100 to 500 nM | 500 to 2000 nM | 100 to 500 nM | 100 to 500 nM | 500 to 2000 nM | COc1cc(N2CCC(N3CCC(C(F)(F)F)CC3)CC2)c(C)cc1Nc1ncc(Br)c(Nc2ccc(F)cc2NS(C)(=O)=O)n1 [Example 148, N-(2-((5-bromo-2-((2-methoxy-5-methyl-4-(4-(trifluoromethyl)-[1,4′-bipiperidin]-1′-yl)phenyl)amino)pyrimidin-4-yl)amino)-5-fluorophenyl)methanesulfonamide] | 500 to 2000 nM
8 | 100 to 500 nM | 500 to 2000 nM | 100 to 500 nM | 100 to 500 nM | 500 to 2000 nM | COc1cc(N2CCC(N3CCN(C)CC3)CC2)c(C)cc1Nc1ncc(Cl)c(Nc2cc(Cl)ccc2P(C)(C)=O)n1 [Example 153, (4-chloro-2-((5-chloro-2-((2-methoxy-5-methyl-4-(4-(4-methylpiperazin-1-yl)piperidin-1-yl)phenyl)amino)pyrimidin-4-yl)amino)phenyl)dimethylphosphine oxide] | 2000 to 10000 nM
9 | 500 to 2000 nM | 2000 to 10000 nM | 500 to 2000 nM | 100 to 500 nM | 2000 to 10000 nM | Cc1cc(Nc2ncc(Cl)c(Nc3cc(Cl)ccc3P(C)(C)=O)n2)c(Cl)cc1N1CCC(N2CCN(C)CC2)CC1 [Example 154, (4-chloro-2-((5-chloro-2-((2-chloro-5-methyl-4-(4-(4-methylpiperazin-1-yl)piperidin-1-yl)phenyl)amino)pyrimidin-4-yl)amino)phenyl)dimethylphosphine oxide] | 2000 to 10000 nM

Continued, compound first:

Row | SMILES | GI50 [1] | GI50 [2] | GI50 [3] | GI50 [4] | GI50 [5] | GI50 (parental Ba/F3 cell line)
10 | COc1cc(N2CCC(N3CCCN(C)CC3)CC2)c(Cl)cc1Nc1ncc(Br)c(Nc2cc(Cl)ccc2NS(C)(=O)=O)n1 [Example 95, N-(2-((5-bromo-2-((5-chloro-2-methoxy-4-(4-(4-methyl-1,4-diazepan-1-yl)piperidin-1-yl)phenyl)amino)pyrimidin-4-yl)amino)-4-chlorophenyl)methanesulfonamide] | 1 to 25 nM | 1 to 25 nM | 1 to 25 nM | 1 to 25 nM | 100 to 500 nM | 500 to 2000 nM
11 | Cc1cc(Nc2ncc(Br)c(Nc3cc(Cl)ccc3NS(C)(=O)=O)n2)c(Cl)cc1N1CCC(N2CCCC(N(C)C)C2)CC1 (stereo not drawn) [Example 98, N-(2-((5-bromo-2-((2-chloro-4-(3-(dimethylamino)-[1,4′-bipiperidin]-1′-yl)-5-methylphenyl)amino)pyrimidin-4-yl)amino)-4-chlorophenyl)methanesulfonamide] | 25 to 100 nM | 100 to 500 nM | 25 to 100 nM | 25 to 100 nM | 100 to 500 nM | 500 to 2000 nM
12 | COc1cc(N2CCC(N3CCN(C)CC3)CC2)c(C)cc1Nc1ncc(Cl)c(Nc2ccc3ncccc3c2NS(C)(=O)=O)n1 [Example 115, N-(6-((5-chloro-2-((2-methoxy-5-methyl-4-(4-(4-methylpiperazin-1-yl)piperidin-1-yl)phenyl)amino)pyrimidin-4-yl)amino)quinolin-5-yl)methanesulfonamide] | 1 to 25 nM | 25 to 100 nM | 100 to 500 nM | 1 to 25 nM | 100 to 500 nM | 2000 to 10000 nM
13 | COc1cc(N2CCC(N3CCN(C)CC3)CC2)c(C)cc1Nc1ncc(Cl)c(Nc2cc3c(cc2NS(C)(=O)=O)CCO3)n1 [Example 140, N-(6-((5-chloro-2-((2-methoxy-5-methyl-4-(4-(4-methylpiperazin-1-yl)piperidin-1-yl)phenyl)amino)pyrimidin-4-yl)amino)-2,3-dihydrobenzofuran-5-yl)methanesulfonamide] | 1 to 25 nM | 25 to 100 nM | 1 to 25 nM | 25 to 100 nM | 100 to 500 nM | 500 to 2000 nM
14 | COc1cc(N2CCC(N3CCN(C)CC3)CC2)c(Cl)cc1Nc1ncc(Br)c(Nc2ccccc2N=S(C)(C)=O)n1 [Example 143] | 100 to 500 nM | 500 to 2000 nM | 500 to 2000 nM | 100 to 500 nM | 100 to 500 nM | 100 to 500 nM
15 | COc1cc(N2CCC(N3CCCC(N(C)C)C3)CC2)c(Cl)cc1Nc1ncc(Br)c(Nc2ccc(F)cc2NS(C)(=O)=O)n1 (stereo not drawn) [Example 149, N-(2-((5-bromo-2-((5-chloro-4-(3-(dimethylamino)-[1,4′-bipiperidin]-1′-yl)-2-methoxyphenyl)amino)pyrimidin-4-yl)amino)-5-fluorophenyl)methanesulfonamide] | 25 to 100 nM | 100 to 500 nM | 100 to 500 nM | 100 to 500 nM | 100 to 500 nM | 100 to 500 nM
16 | COc1cc(N2CCC(N3CCN(C)CC3)CC2)c(C)cc1Nc1nnc(Cl)c(Nc2cc(Cl)ccc2NS(C)(=O)=O)n1 [Example 152, N-(4-chloro-2-((6-chloro-3-((-2-methoxy-5-methyl-4-(4-(4-methylpiperazin-1-yl)piperidin-1-yl)phenyl)amino)-1,2,4-triazin-5-yl)amino)phenyl)methanesulfonamide] | 1 to 25 nM | 1 to 25 nM | 1 to 25 nM | 1 to 25 nM | 100 to 500 nM | 500 to 2000 nM
17 | COc1cc(N2CCC(N3CCN(C)CC3)CC2)c(C)cc1Nc1ncc(Br)c(Nc2cc(Cl)ccc2N(C)S(C)(=O)=O)n1 [Example 155, N-(2-((5-bromo-2-((2-methoxy-5-methyl-4-(4-(4-methylpiperazin-1-yl)piperidin-1-yl)phenyl)amino)pyrimidin-4-yl)amino)-4-chlorophenyl)-N-methylmethanesulfonamide] | 1 to 25 nM | 25 to 100 nM | 1 to 25 nM | 1 to 25 nM | 25 to 100 nM | 100 to 500 nM
